Reference: ChEMBL document CHEMBL1135158, “Pyrrolo[2,3-d]pyrimidines containing diverse N-7 substituents as potent inhibitors of Lck” (Bioorg Med Chem Lett, 2002)

Key:
[1] = molecular target: Tyrosine-protein kinase Fyn (Homo sapiens, UniProt P06241); test: Inhibition of human p55 Fyn tyrosine kinase.
[2] = molecular target: Tyrosine-protein kinase Lyn (Homo sapiens, UniProt P07948); test: Inhibition of human p56 Lyn tyrosine kinase
[3] = molecular target: T1, Tyrosine-protein kinase CSK (Homo sapiens, UniProt P41240); test: Inhibition of human Csk tyrosine kinase
T1 sequence (P41240 whole entry): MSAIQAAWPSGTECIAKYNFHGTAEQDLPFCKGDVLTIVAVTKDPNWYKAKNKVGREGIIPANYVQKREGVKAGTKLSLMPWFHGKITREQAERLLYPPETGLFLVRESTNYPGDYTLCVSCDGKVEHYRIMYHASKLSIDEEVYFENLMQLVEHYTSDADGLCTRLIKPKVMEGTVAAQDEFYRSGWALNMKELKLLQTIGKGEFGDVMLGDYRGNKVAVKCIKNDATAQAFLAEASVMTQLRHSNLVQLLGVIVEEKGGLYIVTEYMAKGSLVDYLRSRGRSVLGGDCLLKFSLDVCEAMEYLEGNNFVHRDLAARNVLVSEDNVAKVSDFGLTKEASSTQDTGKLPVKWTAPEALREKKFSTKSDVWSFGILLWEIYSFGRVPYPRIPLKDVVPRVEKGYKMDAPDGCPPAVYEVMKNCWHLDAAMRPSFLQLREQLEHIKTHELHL

[4] = molecular target: Tyrosine-protein kinase Lck (Homo sapiens, UniProt P06239); test: Inhibition of human p56 Lck tyrosine kinase (lck64-509)
Sequence of Tyrosine-protein kinase Lck (P06239 whole entry): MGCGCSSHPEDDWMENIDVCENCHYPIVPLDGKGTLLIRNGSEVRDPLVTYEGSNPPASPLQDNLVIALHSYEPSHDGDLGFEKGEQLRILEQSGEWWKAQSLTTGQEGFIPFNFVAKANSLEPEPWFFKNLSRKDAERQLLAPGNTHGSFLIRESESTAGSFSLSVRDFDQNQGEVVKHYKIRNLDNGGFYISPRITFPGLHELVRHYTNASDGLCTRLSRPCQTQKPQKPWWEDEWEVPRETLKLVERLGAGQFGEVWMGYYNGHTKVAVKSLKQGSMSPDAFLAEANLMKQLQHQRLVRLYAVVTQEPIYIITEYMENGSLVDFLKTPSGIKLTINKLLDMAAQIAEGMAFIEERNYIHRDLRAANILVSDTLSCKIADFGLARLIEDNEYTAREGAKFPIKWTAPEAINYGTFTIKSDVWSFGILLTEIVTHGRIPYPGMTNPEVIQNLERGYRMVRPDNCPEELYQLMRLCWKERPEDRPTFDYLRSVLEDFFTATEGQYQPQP

[5] = molecular target: Tyrosine-protein kinase Blk (Homo sapiens, UniProt P51451); test: Inhibition of human B lymphoid tyrosine kinase
Sequence of Tyrosine-protein kinase Blk (P51451 whole entry): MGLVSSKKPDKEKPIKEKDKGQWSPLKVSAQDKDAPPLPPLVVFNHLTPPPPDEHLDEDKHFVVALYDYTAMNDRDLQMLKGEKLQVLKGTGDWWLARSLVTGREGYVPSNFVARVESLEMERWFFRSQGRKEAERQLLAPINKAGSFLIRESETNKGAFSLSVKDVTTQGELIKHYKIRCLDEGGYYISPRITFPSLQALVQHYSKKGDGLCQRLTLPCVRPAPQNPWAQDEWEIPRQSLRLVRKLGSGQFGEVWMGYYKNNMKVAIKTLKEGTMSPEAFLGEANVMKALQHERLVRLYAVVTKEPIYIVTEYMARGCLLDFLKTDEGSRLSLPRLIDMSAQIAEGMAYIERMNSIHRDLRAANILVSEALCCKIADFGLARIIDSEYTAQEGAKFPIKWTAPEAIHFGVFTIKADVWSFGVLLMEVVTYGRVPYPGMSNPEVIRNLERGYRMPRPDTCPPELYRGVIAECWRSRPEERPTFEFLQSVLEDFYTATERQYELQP

[6] = molecular target: Proto-oncogene tyrosine-protein kinase Src (Homo sapiens, UniProt P12931)
Sequence of Proto-oncogene tyrosine-protein kinase Src (P12931 2-536 limits assumed): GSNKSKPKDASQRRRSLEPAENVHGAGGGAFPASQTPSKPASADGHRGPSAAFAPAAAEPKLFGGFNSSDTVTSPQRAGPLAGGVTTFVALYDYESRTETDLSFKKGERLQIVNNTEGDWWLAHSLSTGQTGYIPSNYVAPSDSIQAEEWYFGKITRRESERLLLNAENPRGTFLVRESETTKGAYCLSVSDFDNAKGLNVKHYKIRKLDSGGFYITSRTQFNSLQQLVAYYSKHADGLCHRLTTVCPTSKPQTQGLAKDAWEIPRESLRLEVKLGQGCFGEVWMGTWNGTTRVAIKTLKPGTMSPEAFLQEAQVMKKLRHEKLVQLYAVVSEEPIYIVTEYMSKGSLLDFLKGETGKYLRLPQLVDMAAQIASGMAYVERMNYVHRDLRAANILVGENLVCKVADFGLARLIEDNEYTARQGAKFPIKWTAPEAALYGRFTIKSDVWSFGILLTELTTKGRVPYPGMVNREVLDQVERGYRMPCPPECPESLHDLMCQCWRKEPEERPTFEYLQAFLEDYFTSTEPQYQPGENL
Description: Inhibition of Src protein tyrosine kinase

[7] = molecular target: T2, Angiopoietin-1 receptor (Homo sapiens, UniProt Q02763); test: Inhibition of TIE-2 kinase.
T2 sequence (Q02763 whole entry): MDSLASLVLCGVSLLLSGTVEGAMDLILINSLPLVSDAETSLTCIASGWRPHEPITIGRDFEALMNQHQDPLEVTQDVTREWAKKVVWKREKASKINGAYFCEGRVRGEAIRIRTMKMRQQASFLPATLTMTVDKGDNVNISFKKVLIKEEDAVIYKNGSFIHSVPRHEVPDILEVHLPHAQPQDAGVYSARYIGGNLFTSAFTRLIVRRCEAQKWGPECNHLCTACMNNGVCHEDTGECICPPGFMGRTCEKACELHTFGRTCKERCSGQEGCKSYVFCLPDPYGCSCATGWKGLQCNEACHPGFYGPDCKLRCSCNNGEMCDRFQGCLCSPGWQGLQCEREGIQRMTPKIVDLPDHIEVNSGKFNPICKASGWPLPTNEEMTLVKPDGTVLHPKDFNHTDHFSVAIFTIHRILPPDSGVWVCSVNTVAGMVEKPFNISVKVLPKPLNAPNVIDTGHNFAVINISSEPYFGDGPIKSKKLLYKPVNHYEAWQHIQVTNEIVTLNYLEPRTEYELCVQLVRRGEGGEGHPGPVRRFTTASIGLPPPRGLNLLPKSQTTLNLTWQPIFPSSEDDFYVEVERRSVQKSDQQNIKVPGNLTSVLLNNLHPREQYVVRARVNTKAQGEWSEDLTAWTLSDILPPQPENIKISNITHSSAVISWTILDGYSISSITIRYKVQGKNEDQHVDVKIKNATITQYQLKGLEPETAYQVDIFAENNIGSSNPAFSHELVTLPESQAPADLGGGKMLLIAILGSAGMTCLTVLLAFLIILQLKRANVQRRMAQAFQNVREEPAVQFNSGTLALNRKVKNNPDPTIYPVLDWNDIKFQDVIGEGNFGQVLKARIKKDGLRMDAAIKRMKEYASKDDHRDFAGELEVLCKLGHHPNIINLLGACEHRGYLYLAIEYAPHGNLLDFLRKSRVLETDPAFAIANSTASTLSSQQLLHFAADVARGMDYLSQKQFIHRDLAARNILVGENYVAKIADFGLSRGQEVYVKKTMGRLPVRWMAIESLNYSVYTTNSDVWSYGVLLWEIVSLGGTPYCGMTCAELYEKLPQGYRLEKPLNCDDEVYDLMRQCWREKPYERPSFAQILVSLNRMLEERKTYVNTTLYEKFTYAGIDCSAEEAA

[8] = molecular target: T2, Angiopoietin-1 receptor
[9] = system: Mus musculus; test: Effective dose was evaluated in vivo for the inhibition of IFN-gamma production for 3 days peroral administration of the compound; format: functional; settings: po, 72 h
[10] = Maximum plasma concentration was determined after oral administration at a dose 10 mg/kg to male Sprague-Dawley rats; format: ADME, organism-based; parameters: dose 10 mg/kg, route oral; settings: rat
[11] = Area under curve was determined after oral administration at a dose 10 mg/kg to male Sprague-Dawley rats; format: ADME, organism-based; parameters: dose 10 mg/kg, route oral; settings: rat, in vivo
[12] = system: Jurkat; test: Inhibition of IL-2 production in anti-CD3 stimulated Jurkat cells; format: functional, cell-based; settings: Homo sapiens
[13] = Maximum time constant was determined after oral administration at a dose 10 mg/kg to male Sprague-Dawley rats; format: ADME, organism-based; parameters: dose 10 mg/kg, route oral; settings: rat, in vivo
[14] = Bioavailability was determined after intravenous administration at a dose 5 mg/kg to male Sprague-Dawley rats; format: ADME, organism-based; settings: rat, in vivo
[15] = molecular target: T1, Tyrosine-protein kinase CSK; test: Inhibition of human Tyrosine-protein kinase CSK
[16] = species on record: Homo sapiens; test: Inhibition of IL-2 production in whole blood assay; format: functional
[17] = Clearance was determined after intravenous administration at a dose 5 mg/kg to male Sprague-Dawley rats; format: ADME, organism-based; parameters: dose 5 mg/kg, route intravenous; settings: rat, in vivo
[18] = molecular target: Platelet-derived growth factor receptor (Homo sapiens, UniProt P09619+P16234); test: Inhibition of Platelet-derived growth factor receptor (Inactive at 1 mM ATP); format: protein-complex assay
[19] = Half life period was determined after intravenous administration at a dose 5 mg/kg to male Sprague-Dawley rats; format: ADME, organism-based; parameters: dose 5 mg/kg, route intravenous; settings: rat, in vivo
[20] = Volume of distribution was determined after intravenous administration at a dose 5 mg/kg to male Sprague-Dawley rats; format: ADME, organism-based; parameters: dose 5 mg/kg, route intravenous; settings: rat, in vivo, read-out: Vz
[21] = system: Mus musculus; test: Compound was evaluated for the inhibition of TCR stimulated (anti-CD3 mAb) IL-2 production in mice following oral administration; format: functional
[22] = system: Mus musculus; test: Compound was evaluated for inhibition of interleukin - 2 (IL-2) production in anti -CD3 mAb stimulation in mice after oral administration; format: functional
[23] = Compound was evaluated for the pharmacokinetic parameter, area under curve; format: ADME, organism-based; settings: mouse, in vivo
[24] = system: Mus musculus; test: Compound was evaluated for inhibition of interleukin - 2 (IL-2) production in anti -CD3 mAb stimulation in mice after intraperitoneal administration; format: functional; settings: ip
[25] = molecular target: Vascular endothelial growth factor receptor 2 (Homo sapiens, UniProt P35968); test: Inhibition of Vascular endothelial growth factor receptor 2
[26] = Compound was evaluated for the pharmacokinetic parameter, Terminal half life period; format: ADME, organism-based; settings: mouse, in vivo
[27] = Compound was evaluated for the pharmacokinetic parameter, maximum plasma concentration; format: ADME, organism-based; settings: mouse
[28] = Compound was evaluated for the pharmacokinetic parameter, maximum time constant; format: ADME, organism-based; settings: mouse, in vivo
[29] = molecular target: T2, Angiopoietin-1 receptor; test: Inhibition of TIE-2 kinase

Sequence of Tyrosine-protein kinase Lyn (P07948 whole entry): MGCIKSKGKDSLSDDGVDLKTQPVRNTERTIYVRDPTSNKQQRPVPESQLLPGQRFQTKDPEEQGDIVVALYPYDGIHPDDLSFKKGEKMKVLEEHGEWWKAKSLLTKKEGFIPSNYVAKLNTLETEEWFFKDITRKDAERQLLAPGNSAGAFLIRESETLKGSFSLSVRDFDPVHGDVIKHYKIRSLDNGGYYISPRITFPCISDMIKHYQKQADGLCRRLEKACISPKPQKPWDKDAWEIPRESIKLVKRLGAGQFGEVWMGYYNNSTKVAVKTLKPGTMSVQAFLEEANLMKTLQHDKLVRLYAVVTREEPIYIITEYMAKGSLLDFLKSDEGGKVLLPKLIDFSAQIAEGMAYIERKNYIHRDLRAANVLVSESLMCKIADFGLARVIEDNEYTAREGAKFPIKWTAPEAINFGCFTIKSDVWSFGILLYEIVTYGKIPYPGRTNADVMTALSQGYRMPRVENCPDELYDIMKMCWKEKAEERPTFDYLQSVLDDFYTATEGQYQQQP
Sequence of Tyrosine-protein kinase Fyn (P06241 whole entry): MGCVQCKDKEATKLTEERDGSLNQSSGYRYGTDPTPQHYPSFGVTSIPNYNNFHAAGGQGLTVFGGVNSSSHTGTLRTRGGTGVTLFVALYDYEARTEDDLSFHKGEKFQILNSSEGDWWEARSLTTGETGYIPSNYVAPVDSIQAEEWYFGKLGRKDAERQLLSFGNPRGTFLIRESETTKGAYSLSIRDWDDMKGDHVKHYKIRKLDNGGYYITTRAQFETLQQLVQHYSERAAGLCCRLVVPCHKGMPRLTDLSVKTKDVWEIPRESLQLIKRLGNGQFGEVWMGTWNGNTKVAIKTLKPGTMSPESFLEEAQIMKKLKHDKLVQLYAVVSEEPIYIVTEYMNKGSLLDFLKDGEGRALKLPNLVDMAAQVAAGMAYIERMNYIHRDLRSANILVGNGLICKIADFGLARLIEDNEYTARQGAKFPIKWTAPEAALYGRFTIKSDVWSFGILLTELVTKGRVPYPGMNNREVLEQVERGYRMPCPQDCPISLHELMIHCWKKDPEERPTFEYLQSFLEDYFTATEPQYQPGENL

## CN1CCN([C@H]2CC[C@H](n3cc(-c4ccc(Oc5ccccc5)cc4)c4c(N)ncnc43)CC2)CC1
[1]
  IC50: 2030 nM
[2]
  IC50: 430 nM
[3]
  IC50: 4270 nM
[4]
  IC50: 240 nM
[5]
  IC50: 370 nM
[6]
  IC50: 1190 nM
[7]
  IC50: 5850 nM

## NCCn1cc(-c2ccc(Oc3ccccc3)cc2)c2c(N)ncnc21
[8]
  IC50: > 50000 nM

## CN1CCN([C@H]2CC[C@@H](n3cc(-c4ccc(Oc5ccccc5)cc4)c4c(N)ncnc43)CC2)CC1
[9]
  ED50: 2.2 mg/kg
[10]
  Cmax: 113 nM
[11]
  AUC: 661 ng·h/mL
[1]
  IC50: 59 nM
[2]
  IC50: 29 nM
[12]
  IC50: 25 nM
[8]
  IC50: 250 nM
[4]
  IC50: 15 nM
[13]
  Tmax: 4 h
[14]
  bioavailability: 54%
[15]
  IC50: 41 nM
[5]
  IC50: 46 nM
[6]
  IC50: 42 nM
[16]
  IC50: 70 nM
[17]
  clearance: 88.3 mL/min/kg
[18]
  IC50: > 20000 nM
[19]
  half-life: 14.3 h
[20]
  Vd: 140 L/kg

## CN1CCN([C@H]2CC[C@@H](n3cc(-c4ccc(Oc5ccccc5)cc4)c4c(N)ncnc43)CC2)CC1.O=C(O)/C=C\C(=O)O
[21]
  ED50: 2.5 mg/kg

## Nc1ncnc2c1c(-c1ccc(Oc3ccccc3)cc1)cn2C1CCCC1
[22]
  ED50: 25 mg/kg
[23]
  AUC: 34.3 ng·h/mL
[24]
  ED50: 4 mg/kg
[4]
  IC50: 100 nM
[6]
  IC50: 560 nM
[25]
  IC50: 4440 nM
[26]
  half-life: 7.7 h
[27]
  Cmax: 28 nM
[28]
  Tmax: 0.25 h
[29]
  IC50: 9070 nM
